Reference: US11939307B2, “Phenylmethyl-piperazine derivatives and antiviral uses thereof” (INSTITUTE OF MEDICINAL BIOTECHNOLOGY, CHINESE ACADEMY OF …, priority 2019, dated 2024)

These compounds were tested on HCV (assay: Assay of anti-HCV activity in HCV-infected Huh7.5 cells (intracellular HCV RNA by one-step quantitative RT-PCR)). Conditions: Hepatitis C virus; compound at 1 μM; Huh7.5 cells infected with HCV; 96 hrs; intracellular HCV RNA vs viral control; read-out: inhibitory activities (inhibitory levels of the compounds against HCV replication).
Type: cell-based
Method: 100 μL Huh7.5 cells were seeded at a density of 1×10^5/mL in a 96-well cell culture plate and incubated in an incubator at 37° C., 5% CO2 and saturated humidity for 6 hrs. Then, while infecting Huh7.5 cells with viral solution containing HCV virus particles, the compounds of the present invention (including all specific compounds listed herein) were added at a concentration of 1 μM, respectively. After continuing incubation for 96 hrs, the total intracellular RNA was extracted separately, and the content of intracellular HCV RNA was measured by one-step quantitative RT-PCR, compared with the RNA level of the viral control, and the inhibition rate of the compounds against HCV was calculated.

`CC(c1ccc(Br)cc1)N1CCN(Cc2cc(N3CCCN(C)CC3)ccc2C(F)(F)F)CC1` (centres unmarked) [Compound 1, 1-(3-((4-(1-(4-bromophenyl)ethyl)piperazin-1-yl)methyl)-4-(trifluoromethyl)phenyl)-4-methyl-1,4-diazepane] and `CC(c1ccc(F)c(Cl)c1)N1CCN(Cc2cc(N3CCCN(C)CC3)ccc2C(F)(F)F)CC1` (centres unmarked) [Compound 3, 1-(3-((4-(1-(3-chloro-4-fluorophenyl)ethyl)piperazin-1-yl)methyl)-4-(trifluoromethyl)phenyl)-4-methyl-1,4-diazepane] cannot be ordered by inhibition at 1 µM: over 75% for the first, over 75% for the second.

`CN1CCCN(c2ccc(C(F)(F)F)c(CN3CCN(Cc4ccc(Cl)cc4)CC3)c2)CC1` [Compound 2, 1-(3-((4-(4-chlorobenzyl)piperazin-1-yl)methyl)-4-(trifluoromethyl)phenyl)-4-methyl-1,4-diazepane] and `CN1CCCN(c2ccc(C(F)(F)F)c(CN3CCN(c4ccc(Cl)cc4)CC3)c2)CC1` [Compound 23, 1-(3-((4-(4-chlorophenyl)piperazin-1-yl)methyl)-4-(trifluoromethyl)phenyl)-4-methyl-1,4-diazepane] cannot be ordered by inhibition at 1 µM: over 75% for the first, over 75% for the second.

`Cc1cc(CN2CCN(Cc3cc(N4CCCN(C)CC4)ccc3C(F)(F)F)CC2)ccc1Cl` [Compound 4, 1-(3-((4-(4-chloro-3-methylbenzyl)piperazin-1-yl)methyl)-4-(trifluoromethyl)phenyl)-4-methyl-1,4-diazepane] and `CN1CCN(c2ccc(C(F)(F)F)c(CN3CCN(Cc4ccc(Cl)c(Cl)c4)CC3)c2)CC1` [Compound 6, 1-(3,4-dichlorobenzyl)-4-(5-(4-methylpiperazin-1-yl)-2-(trifluoromethyl)benzyl)piperazine] cannot be ordered by inhibition at 1 µM: over 75% for the first, over 75% for the second.

`CCCC(c1ccc(OC)cc1)N1CCN(Cc2cc(N3CCCN(C)CC3)ccc2C(F)(F)F)CC1` (centres unmarked) [Compound 5, 1-(3-((4-(1-(4-methoxyphenyl)butyl)piperazin-1-yl)methyl)-4-(trifluoromethyl)phenyl)-4-methyl-1,4-diazepane] and `CN1CCN(c2ccc(C(F)(F)F)c(CN3CCN(c4ccc(Cl)cc4)CC3)c2)CC1` [Compound 30, 1-(4-chlorophenyl)-4-(5-(4-methylpiperazin-1-yl)-2-(trifluoromethyl)benzyl)piperazine] cannot be ordered by inhibition at 1 µM: over 75% for the first, over 75% for the second.

Compared with `CN1CCCN(c2ccc(C(F)(F)F)c(CN3CCC(Cc4ccc(Cl)cc4)CC3)c2)CC1` [Compound 7, 1-(3-((4-(4-chlorobenzyl)piperidin-1-yl)methyl)-4-(trifluoromethyl)phenyl)-4-methyl-1,4-diazepane], `CC1CN(c2ccc(Cl)cc2)CCN1Cc1cc(N2CCCN(C)CC2)ccc1C(F)(F)F` (centres unmarked) [Compound 22, 1-(3-((4-(4-chlorophenyl)-2-methylpiperazin-1-yl)methyl)-4-(trifluoromethyl)phenyl)-4-methyl-1,4-diazepane] is higher in inhibition at 1 µM: 50 to 75% for the first, over 75% for the second.

`CCC(c1ccc(Br)cc1)N1CCN(Cc2cc(N(C)CCN(C)C)ccc2C(F)(F)F)CC1` (centres unmarked) [Compound 8, N^1-(3-((4-(1-(4-bromophenyl)propyl)piperazin-1-yl)methyl)-4-(trifluoromethyl)phenyl)-N^1,N^2,N^2-trimethylethan-1,2-diamine] and `CN(C)CCN(C)c1ccc(C(F)(F)F)c(CN2CCN(c3ccc(Br)cc3)CC2)c1` [Compound 20, N^1-(3-((4-(4-bromophenyl)piperazin-1-yl)methyl)-4-(trifluoromethyl)phenyl)-N^1,N^2,N^2-trimethylethan-1,2-diamine] cannot be ordered by inhibition at 1 µM: over 75% for the first, over 75% for the second.

`CC(c1ccc(Cl)cc1)N1CCN(Cc2cc(N(C)CCN(C)C)ccc2C(F)(F)F)CC1` (centres unmarked) [Compound 9, N^1-(3-((4-(1-(4-chlorophenyl)ethyl)piperazin-1-yl)methyl)-4-(trifluoromethyl)phenyl)-N^1,N^2,N^2-trimethylethan-1,2-diamine] and `CN(C)CCN(C)c1ccc(C(F)(F)F)c(CN2CCN(c3ccc(Cl)cc3)CC2)c1` [Compound 19, N^1-(3-((4-(4-chlorophenyl)piperazin-1-yl)methyl)-4-(trifluoromethyl)phenyl)-N^1,N^2,N^2-trimethylethan-1,2-diamine] cannot be ordered by inhibition at 1 µM: over 75% for the first, over 75% for the second.

First: Cc1ccc(CN2CCN(Cc3cc(N(C)CCN(C)C)ccc3C(F)(F)F)CC2)cc1 [Compound 10, N^1,N^1,N^2-trimethyl-N^2-(3-((4-(4-methylbenzyl)piperazin-1-yl)methyl)-4-(trifluoromethyl)phenyl)ethan-1,2-diamine]
Second: CN(C)CCN(C)c1ccc(C(F)(F)F)c(CN2CCN(c3ccc(Br)c(Cl)c3)CC2)c1 [Compound 26, N^1-(3-((4-(4-bromo-3-chlorophenyl)piperazin-1-yl)methyl)-4-(trifluoromethyl)phenyl)-N^1,N^2,N^2-trimethylethan-1,2-diamine]
The inhibition at 1 µM of the first is lower: 50 to 75% for the first, over 75% for the second.

`CCN1CCN(c2ccc(C#N)c(CN3CCN(Cc4ccc(Cl)c(C)c4)CC3)c2)CC1` [Compound 11, 2-((4-(4-chloro-3-methylbenzyl)piperazin-1-yl)methyl)-4-(4-ethylpiperazin-1-yl)benzonitrile] and `N#Cc1ccc(N2CCN(C3CC3)CC2)cc1CN1CCN(Cc2ccc(Cl)cc2)CC1` [Compound 12, 2-((4-(4-chlorobenzyl)piperazin-1-yl)methyl)-4-(4-cyclopropylpiperazin-1-yl)benzonitrile] fall in the same range of inhibition at 1 µM: 50 to 75% for the first, 50 to 75% for the second.

`CCN(C)CCN(C)c1ccc(C#N)c(CN2CCN(C(C)c3ccc(Cl)cc3)CC2)c1` (centres unmarked) [Compound 13, 2-((4-(1-(4-chlorophenyl)ethyl)piperazin-1-yl)methyl)-4-((2-(ethyl(methyl)amino)ethyl)(methyl)amino)benzonitrile] and `CC(c1ccc(C(F)(F)F)cc1)N1CCN(Cc2cc(N(C)CCN(C)C)ccc2C#N)CC1` (centres unmarked) [Compound 15, 4-((2-(dimethylamino)ethyl)(methyl)amino)-2-((4-(1-(4-(trifluoromethyl)phenyl)ethyl)piperazin-1-yl)methyl)benzonitrile] cannot be ordered by inhibition at 1 µM: over 75% for the first, over 75% for the second.

Compared with `CC(c1ccccc1)N1CCN(Cc2cc(N3CCCC(N(C)C)C3)ccc2C#N)CC1` (centres unmarked) [Compound 14, 4-(3-(dimethylamino)piperidin-1-yl)-2-((4-(1-phenylethyl)piperazin-1-yl)methyl)benzonitrile], `CN(C)C1CCN(c2ccc(C(F)(F)F)c(CN3CCN(c4ccc(Cl)cc4)CC3)c2)C1` (centres unmarked) [Compound 29, 1-(3-((4-(4-chlorophenyl)piperazin-1-yl)methyl)-4-(trifluoromethyl)phenyl)-N,N-dimethylpyrrolidin-3-amine] is higher in inhibition at 1 µM: 50 to 75% for the first, over 75% for the second.

`CC(C)C(c1ccc(Cl)cc1)N1CCN(Cc2cc(N(C)CCN3CCCC3)ccc2C#N)CC1` (centres unmarked) [Compound 16, 2-((4-(1-(4-chlorophenyl)-2-methylpropyl)piperazin-1-yl)methyl)-4-(methyl(2-(pyrrolidin-1-yl)ethyl)amino)benzonitrile] and `CN(CC1CCCCN1C)c1ccc(C(F)(F)F)c(CN2CCN(c3ccc(Cl)cc3)CC2)c1` (centres unmarked) [Compound 21, 3-((4-(4-chlorophenyl)piperazin-1-yl)methyl)-N-methyl-N-((1-methylpiperidin-2-yl)methyl)-4-(trifluoromethyl)aniline] cannot be ordered by inhibition at 1 µM: over 75% for the first, over 75% for the second.

`CCN(CC)CCN(C)c1ccc(C#N)c(CN2CCN(Cc3ccc(F)c(Cl)c3)CC2)c1` [Compound 17, 2-((4-(3-chloro-4-fluorobenzyl)piperazin-1-yl)methyl)-4-((2-(diethylamino)ethyl)(methyl)amino)benzonitrile] and `N#Cc1ccc(NCCCn2cccc2)cc1CN1CCN(Cc2ccc(Cl)c(Cl)c2)CC1` [Compound 18, 4-((3-(1H-pyrrol-1-yl)propyl)amino)-2-((4-(3,4-dichlorobenzyl)piperazin-1-yl)methyl)benzonitrile] cannot be ordered by inhibition at 1 µM: over 75% for the first, over 75% for the second.

`CN(CC1CCCN1C)c1ccc(C(F)(F)F)c(CN2CCN(c3ccc(Br)cc3)CC2)c1` (centres unmarked) [Compound 24, 3-((4-(4-bromophenyl)piperazin-1-yl)methyl)-N-methyl-N-((1-methylpyrrolidin-2-yl)methyl)-4-(trifluoromethyl)aniline] and `CCN1CCCC1CN(C)c1ccc(C(F)(F)F)c(CN2CCN(c3ccc(Cl)cc3)CC2)c1` (centres unmarked) [Compound 25, 3-((4-(4-chlorophenyl)piperazin-1-yl)methyl)-N-((1-ethylpyrrolidin-2-yl)methyl)-N-methyl-4-(trifluoromethyl)aniline] cannot be ordered by inhibition at 1 µM: over 75% for the first, over 75% for the second.

`CN(C)C1CCN(c2ccc(C(F)(F)F)c(CN3CCN(c4ccc(Cl)cc4)CC3)c2)CC1` [Compound 27, 1-(3-((4-(4-chlorophenyl)piperazin-1-yl)methyl)-4-(trifluoromethyl)phenyl)-N,N-dimethylpiperidin-4-amine] and `FC(F)(F)c1ccc(N2CCC(N3CCCC3)CC2)cc1CN1CCN(c2ccc(Cl)cc2)CC1` [Compound 28, 1-(4-chlorophenyl)-4-(5-(4-(pyrrolidin-1-yl)piperidin-1-yl)-2-(trifluoromethyl)benzyl)piperazine] cannot be ordered by inhibition at 1 µM: over 75% for the first, over 75% for the second.

`CC1CN(c2ccc(Cl)cc2)CCN1Cc1cc(N(C)CN2CCCCC2)ccc1C(F)(F)F` (centres unmarked) [Compound 31, 3-((4-(4-chlorophenyl)-2-methylpiperazin-1-yl)methyl)-N-methyl-N-(piperidin-1-ylmethyl)-4-(trifluoromethyl)aniline] and `CC1CN(c2ccc(Cl)c(C(F)(F)F)c2)CCN1Cc1cc(N2CCCN(C)CC2)ccc1C(F)(F)F` (centres unmarked) [Compound 32, 1-(3-((4-(4-chloro-3-(trifluoromethyl)phenyl)-2-methylpiperazin-1-yl)methyl)-4-(trifluoromethyl)phenyl)-4-methyl-1,4-diazepane] cannot be ordered by inhibition at 1 µM: over 75% for the first, over 75% for the second.
